Among the data in US12344610B2, “APOL1 inhibitors and methods of use” (Maze Therapeutics, Inc., priority 2022, dated 2025) are EC50 values, retold here.

The subject of assay [1] is Trypanosoma brucei Lister 427 VSG221 with APOL1 G1 recombinant protein. In words: APOL1 G1 trypanosome cell rescue assay (Example B5). Format: cell-based. The note with it: Trypanosoma brucei, 20 h, read-out: APOL1 G1 Trypanosome Rescue EC50, Trypanosoma brucei Lister 427 VSG221 with APOL1 G1 recombinant protein, 20 hours, CellTiter-Glo; geometric mean of at least 2 assay runs; † = single assay run. A digest of the protocol:
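Viability read by CellTiter-Glo luminescence after 20 h co-incubation (37° C, 5% CO2) of 250 trypanosomes/well in modified HMI-9 with test compound (duplicate 11-point, 2-fold dilutions, 0.4% DMSO) and APOL1 protein, […]. Protein: mature residues 28-398, E. coli inclusion-body refolded, tag cleaved, in DDM.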
For orientation: Cellular ATP, detected with luciferase, serves as a proxy for viable cell number.

Assay [2] relates to HEK293 cells overexpressing APOL1 G2. In words: APOL1 G2 HEK293 cell rescue assay (reversal of cell death caused by overexpression of APOL1). Format: cell-based. The note with it: Homo sapiens, HEK293, HEK293 overexpressing APOL1 G2; geometric mean of at least 2 assay runs; † = single assay run. In outline:
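Each compound tested in duplicate wells on one plate per run, with values usually the geometric mean across at least two runs on different days, occasionally from one run only. Read-out: concentration giving half-maximal rescue of APOL1 G2 overexpression-induced death of HEK293 cells.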

Molecules are shown by their SMILES. A value given as a limit tells only on which side of the number the result lay.

For the compound `O=C1Nc2ccc(Cl)cc2C12CCN(CCOc1ccc(S(=O)(=O)[C@H]3C[C@H](O)C3)cc1)CC2` [Compound 215, 5-chloro-1′-[2-(4-{[(trans)-3-hydroxycyclobutyl]sulfonyl}phenoxy)ethyl]-1,2-dihydrospiro[indole-3,4′-piperidin]-2-one], the EC50 (commonly the concentration giving half of the maximal effect) in assay [1] came to 97 nM; in assay [2], 79.8 nM.
As for `CS(=O)(=O)c1ccc(OCCN2CCC3(CC2)C(=O)Nc2ccc(Cl)cc23)cc1C(O)CO` (centres unmarked) [Compound 216, 5-chloro-1′-{2-[3-(1,2-dihydroxyethyl)-4-methanesulfonylphenoxy]ethyl}-1,2-dihydrospiro[indole-3,4′-piperidin]-2-one], the EC50 in assay [1] stood at 912 nM; in assay [2], 281 nM.
The matching figures for `O=C1CCc2cc(OCCN3CCC4(CC3)C(=O)Nc3ccc(Cl)cc34)ccc2N1[C@H]1C[C@H](O)C1` [Compound 224, 5-chloro-1′-[2-({2-oxo-1-[(trans)-3-hydroxycyclobutyl]-1,2,3,4-tetrahydroquinolin-6-yl}oxy)ethyl]-1,2-dihydrospiro[indole-3,4′-piperidin]-2-one]: 92.8 nM and 38.6 nM.
The matching figures for `O=C1Nc2ccc(Cl)cc2C12CCN(CCOc1ccc(S(=O)(=O)C3(CO)CC3)cc1)CC2` [Compound 225, 5-chloro-1′-[2-(4-{[1-(hydroxymethyl)cyclopropyl]sulfonyl}phenoxy)ethyl]-1,2-dihydrospiro[indole-3,4′-piperidin]-2-one]: 50.8 nM and 32.6 nM.
The matching figures for `CNC(=O)C1(S(=O)(=O)c2ccc(OCCN3CCC4(CC3)C(=O)Nc3ccc(Cl)cc34)cc2)CC1` [Compound 226, 1-[4-(2-{5-chloro-2-oxo-1,2-dihydrospiro[indole-3,4′-piperidin]-1′-yl}ethoxy)benzenesulfonyl]-N-methylcyclopropane-1-carboxamide]: 112 nM and 43 nM.
Take `CN(C)C(=O)C1(S(=O)(=O)c2ccc(OCCN3CCC4(CC3)C(=O)Nc3ccc(Cl)cc34)cc2)CC1` [Compound 227, 1-[4-(2-{5-chloro-2-oxo-1,2-dihydrospiro[indole-3,4′-piperidin]-1′-yl}ethoxy)benzenesulfonyl]-N,N-dimethylcyclopropane-1-carboxamide]: the EC50 was found to be 248 nM in assay [1] and 47 nM in assay [2].
As to `O=C1Nc2ccc(Cl)cc2C12CCN(CCOc1ccc(S(=O)(=O)C3(C(=O)N4CCC4)CC3)cc1)CC2` [Compound 228, 1′-[2-(4-{[1-(azetidine-1-carbonyl)cyclopropyl]sulfonyl}phenoxy)ethyl]-5-chloro-1,2-dihydrospiro[indole-3,4′-piperidin]-2-one], the figures for the EC50 in assay [1] and in assay [2] were 363 nM and 101 nM, respectively.
The matching figures for `CNC(=O)c1ccc(OCCN2CCC3(CC2)C(=O)Nc2ccc(Cl)cc23)cc1F` [Compound 229, 4-(2-{5-chloro-2-oxo-1,2-dihydrospiro[indole-3,4′-piperidin]-1′-yl}ethoxy)-2-fluoro-N-methylbenzamide]: 778 nM and 128 nM.
Take `CN(C)C(=O)c1ccc(OCCN2CCC3(CC2)C(=O)Nc2ccc(Cl)cc23)cc1F` [Compound 230, 4-(2-{5-chloro-2-oxo-1,2-dihydrospiro[indole-3,4′-piperidin]-1′-yl}ethoxy)-2-fluoro-N,N-dimethylbenzamide]: the EC50 in assay [1] turned out to be 801 nM; in assay [2], 98.7 nM.
The matching figures for `O=C(c1ccc(OCCN2CCC3(CC2)C(=O)Nc2ccc(Cl)cc23)cc1F)N1CCOCC1` [Compound 231, 5-chloro-1′-{2-[3-fluoro-4-(morpholine-4-carbonyl)phenoxy]ethyl}-1,2-dihydrospiro[indole-3,4′-piperidin]-2-one]: 231 nM and 42 nM.
The matching figures for `O=C(c1ccc(OCCN2CCC3(CC2)C(=O)Nc2ccc(Cl)cc23)cc1F)N1CCS(=O)(=O)CC1` [Compound 232, 4-[4-(2-{5-chloro-2-oxo-1,2-dihydrospiro[indole-3,4′-piperidin]-1′-yl}ethoxy)-2-fluorobenzoyl]-1λ^6-thiomorpholine-1,1-dione]: 157 nM and 39.2 nM.
On to `CS(=O)(=O)C1CN(C(=O)c2ccc(OCCN3CCC4(CC3)C(=O)Nc3ccc(Cl)cc34)cc2F)C1` [Compound 233, 5-chloro-1′-{2-[3-fluoro-4-(3-methanesulfonyl-azetidine-1-carbonyl)phenoxy]ethyl}-1,2-dihydrospiro[indole-3,4′-piperidin]-2-one], for which the EC50 in assay [1] was 134 nM; in assay [2], 57.7 nM.
For `O=C(c1ccc(OCCN2CCC3(CC2)C(=O)Nc2ccc(Cl)cc23)cc1F)N1CCC1` [Compound 234, 1′-{2-[4-(azetidine-1-carbonyl)-3-fluorophenoxy]ethyl}-5-chloro-1,2-dihydrospiro[indole-3,4′-piperidin]-2-one], the EC50 in assay [1] stood at 475 nM; in assay [2] it was 80.3 nM.
The matching figures for `O=C(c1ccc(OCCN2CCC3(CC2)C(=O)Nc2ccc(Cl)cc23)cc1F)N1CC(O)C1` [Compound 235, 5-chloro-1′-{2-[3-fluoro-4-(3-hydroxyazetidine-1-carbonyl)phenoxy]ethyl}-1,2-dihydrospiro[indole-3,4′-piperidin]-2-one]: 452 nM and 59.8 nM.
The matching figures for `NC1CN(C(=O)c2ccc(OCCN3CCC4(CC3)C(=O)Nc3ccc(Cl)cc34)cc2F)C1` [Compound 236, 1′-{2-[4-(3-aminoazetidine-1-carbonyl)-3-fluorophenoxy]ethyl}-5-chloro-1,2-dihydrospiro[indole-3,4′-piperidin]-2-one]: 866 nM and 45 nM.
With `CS(=O)(=O)NC1CN(C(=O)c2ccc(OCCN3CCC4(CC3)C(=O)Nc3ccc(Cl)cc34)cc2F)C1` [Compound 237, N-{1-[4-(2-{5-chloro-2-oxo-1,2-dihydrospiro[indole-3,4′-piperidin]-1′-yl}ethoxy)-2-fluorobenzoyl]azetidin-3-yl} methanesulfonamide], the EC50 in assay [1] was 196 nM; in assay [2], 238 nM.
The matching figures for `N#Cc1ccc2c(c1)C1(CCN(CCOc3ccc(C(N)=O)c(F)c3)CC1)C(=O)N2` [Compound 238, 4-(2-{5-cyano-2-oxo-1,2-dihydrospiro[indole-3,4′-piperidin]-1′-yl}ethoxy)-2-fluorobenzamide]: more than 4000 nM and 85.2 nM.
The matching figures for `O=C(c1ccc(OCCN2CCC3(CC2)C(=O)Nc2ccc(Cl)cc23)cc1F)N1CC2(C1)CS(=O)(=O)C2` [Compound 239, 6-[4-(2-{5-chloro-2-oxo-1,2-dihydrospiro[indole-3,4′-piperidin]-1′-yl}ethoxy)-2-fluorobenzoyl]-2λ^6-thia-6-azaspiro[3.3]heptane-2,2-dione]: 48.8 nM and 77.9 nM.
As for `Cc1n[nH]cc1-c1ccc(OCCN2CCC3(CC2)C(=O)Nc2ccc(Cl)cc23)cc1` [Compound 244, 5-chloro-1′-{2-[4-(5-methyl-1H-pyrazol-4-yl)phenoxy]ethyl}-1,2-dihydrospiro[indole-3,4′-piperidin]-2-one], the EC50 was found to be 151 nM in assay [1] and 70.4 nM in assay [2].
